Experimental data: article PMC9067539 (Bioorganic & medicinal chemistry letters, 2022)
Read-outs that look alike come from different tables or passages of the source. Blank lines part the entries; values can stand above or below the molecule they belong to.

Tests used:
[1] = mice; cited from earlier work
[2] = system: MOG35–55-induced murine model of chronic progressive Experimental Autoimmune Encephalomyelitis (EAE); test: EAE therapeutic model, disease scores; format: in vivo
[3] = cited from earlier work
DYRK1A [4] = molecular target: T1, DYRK1A (Rattus norvegicus, UniProt Q63470); test: DYRK1A ELISA kinase assay; format: biochemical; conditions: for times less potent against DYRK1A compared to the di-hydroxy derivatives: A-ring hydroxyl removal, vs GCG
[5] = Stability in biological media; format: in vitro ADME; conditions: biological media (plasma and hepatocytes media)
[6] = Exposure after intranasal compared to oral route; format: in vivo; conditions: brain and peripheral blood; data not shown
DYRK1A [7] = molecular target: T1, DYRK1A; test: DYRK1A ELISA assay with varying concentrations of ATP; format: biochemical; conditions: [ATP] up to 0.8 mM
[8] = system: spinal cord inflammation, demyelination, and axonal neurodegeneration; test: Histopathological analysis of spinal cord sections of EAE mice; format: in vivo; conditions: intranasal vs oral, 15 mg/kg BID

SMILES: O=C(O[C@@H]1Cc2c(O)cc(O)cc2O[C@@H]1c1cc(O)c(O)c(O)c1)c1cc(O)c(O)c(O)c1 [EGCG, Epigallocatechin gallate]
oral bioavailability (F) [1]: up to 12%
EAE disease scores ([2]; oral (PO), 15 mg/kg BID): did not see any significant activity
oral bioavailability (F) ([3]; rats): up to 5%

fold more potent than catechin gallate (CG) (DYRK1A [4]): about 3 fold
stability in biological media [5]: improved stability in biological media
SMILES: O=C(O[C@@H]1Cc2c(O)cc(O)cc2O[C@H]1c1ccc(O)c(O)c1)c1cc(O)c(O)c(O)c1F (racemic) [1r]

SMILES: CCCCCCCCc1ccc(CCC(N)(CO)CO)cc1 [FTY720, Fingolimod, reference compound]
EAE disease scores ([2]; 1 mg/kg QD): reversal of the disease scores

times less potent against DYRK1A compared to the di-hydroxy derivatives (DYRK1A [4]): ~2 times
SMILES: O=C(OC1Cc2c(O)cccc2OC1c1cc(O)c(O)c(O)c1)c1cc(O)c(O)c(O)c1 (centres unmarked) [1b]

exposure increase with intranasal compared to the oral route [6]: 50 fold
SMILES: O=C(O[C@@H]1Cc2c(O)cc(O)cc2O[C@H]1c1ccc(O)c(O)c1)c1cc(O)c(O)c(O)c1 [CG, catechin gallate]

SMILES: O=C(O[C@@H]1Cc2c(O)cc(O)cc2O[C@H]1c1cc(O)c(O)c(O)c1)c1cc(O)c(O)c(O)c1 [(−)GCG, reference compound]
effect of [ATP] on inhibitory potency (DYRK1A [7]): only marginally affected

SMILES: COc1cc(C(=O)O[C@@H]2Cc3c(O)cc(O)cc3O[C@@H]2c2cc(O)c(O)c(O)c2)cc(O)c1O [EGCG-3”OMe]
fold improved oral bioavailability than EGCG [3]: about 6 fold

times less potent against DYRK1A compared to the di-hydroxy derivatives (DYRK1A [4]): about 4 times
IC50 (DYRK1A [4]; read-out: DYRK1A IC50, ELISA assay): 422 nM
SMILES: O=C(O[C@H]1Cc2ccccc2O[C@@H]1c1cc(O)c(O)c(O)c1)c1cc(O)c(O)c(O)c1 (racemic) [1a]

SMILES: O=C(O[C@@H]1Cc2c(O)cc(O)cc2O[C@H]1c1cc(O)c(O)c(O)c1F)c1cc(O)c(O)c(O)c1 [1n]
stability in biological media [5]: did not translate into a stability improvement in biological media

SMILES: Oc1cc(O)c2c(c1)O[C@H](c1cc(O)c(O)c(O)c1)[C@H](O)C2 [EGC, EpiGalloCatechin, reference compound]
IC50 (DYRK1A [4]): > 100000 nM

fold improvement in activity against DYRK1A compared to GCG (DYRK1A [4]): about 3 fold
effect of [ATP] on inhibitory potency (DYRK1A [7]): only marginally affected
SMILES: O=C(O[C@@H]1Cc2c(O)cc(O)cc2O[C@H]1c1cc(O)c(O)c(O)c1)c1cc(O)c(O)c(O)c1F [1f]
spinal cord lesion severity, intranasal versus oral administration [8]: more effective at reducing lesion severity than oral administration
EAE disease scores ([2]; intranasal, 15 mg/kg twice daily): reversal of the disease scores similar to that observed with FTY720
EAE disease scores ([2]; oral (PO), 15 mg/kg BID): no significant amelioratory effect until the last two days of the study

SMILES: O=C(OC1Cc2ccccc2CC1c1cc(O)c(O)c(O)c1)c1cc(O)c(O)c(O)c1 (centres unmarked) [1c]
stability in biological media [5]: does not improve stability in biological media
